The text below walks through data of US11236092B2, “Spiro-condensed pyrrolidine derivatives as deubiquitylating enzymes (DUB) inhibitors” (MISSION THERAPEUTICS LIMITED, priority 2016, dated 2022).

This test concerns the target Cezanne 1 (Homo sapiens (Human), UniProt Q6GQQ9). Description: Cezanne 1 biochemical IC50 assay (fluorescence polarisation). The following applies: FLAG-Cezanne 1; enzyme and compound incubated 30 min at room temp; 50 nM TAMRA labelled peptide linked to ubiquitin as substrate; read after 2 hr; read-out: IC50 range. As to the method:
Expression and Purification of Cezanne 1
The Cezanne 1 construct was PCR amplified and cloned into a pFLAG-CMV-6c vector (Sigma-Aldrich) with an N-terminal FLAG tag. HEK293T cells were transfected with FLAG-Cezanne 1 using TransIT-LT1 transfection reagent (Mirus) according to the manufacturer's instructions. Cells were harvested 48 hours after transfection. […] The resin was washed two times with low salt buffer and one time with high salt buffer (20 mM Tris, pH 7.5, 500 mM NaCl, 0.5 mM EDTA, 5 mM beta-mercaptoethanol, protease inhibitors (complete mini, Roche) and phosphatase inhibitors (PhosSTOP mini, Roche). To elute the bound Cezanne 1, elution buffer (10 mM Tris, pH 7.5, 150 mM NaCl, 0.5 mM EDTA, 10% glycerol, 0.5% NP40, 5 mM beta-mercaptoethanol, 0.15 mg/ml 3X FLAG peptide (Sigma-Aldrich)) was added to the resin and incubated at 4° C. for 2.5 hours while rotating. The resin was centrifuged at 4000 rpm for 30 seconds, and the supernatant containing purified FLAG-Cezanne 1 was removed and stored at −80° C.
Cezanne 1 Biochemical IC50 Assay
Dilution plates were prepared at 21 times the final concentration (2100 μM for a final concentration of 100 μM) in 50% DMSO in a 96-well polypropylene V-bottom plate (Greiner #651201). A typical 8-point dilution series to be 100, 30, 10, 3, 1, 0.3, 0.1, 0.03 μM final. Reactions were performed in duplicate in black 384 well plates (small volume, Greiner 784076) in a final reaction volume of 21 μl. Either 1 μl of 50% DMSO or diluted compound was added to the plate. Cezanne 1 was diluted in reaction buffer (40 mM Tris, pH 7.5, 0.005% Tween 20, 0.5 mg/ml BSA, 5 mM—beta-mercaptoethanol) to the equivalent of 0.005 μl/well and 10 μl of diluted Cezanne 1 was added to the compound. Enzyme and compound were incubated for 30 min at room temp. Reactions were initiated by the addition of 50 nM of TAMRA labelled peptide linked to ubiquitin via an iso-peptide bond as fluorescence polarisation substrate. Reactions were read immediately after addition of substrate and following a 2 hr incubation at room temperature. Readings were performed on a Pherastar Plus (BMG Labtech). λ Excitation 540 nm; λ Emission 590 nm.
For orientation: Fluorescence polarisation rises when a labelled molecule tumbles more slowly, as on binding a larger partner.

Sequence of Cezanne 1 (Q6GQQ9 whole entry): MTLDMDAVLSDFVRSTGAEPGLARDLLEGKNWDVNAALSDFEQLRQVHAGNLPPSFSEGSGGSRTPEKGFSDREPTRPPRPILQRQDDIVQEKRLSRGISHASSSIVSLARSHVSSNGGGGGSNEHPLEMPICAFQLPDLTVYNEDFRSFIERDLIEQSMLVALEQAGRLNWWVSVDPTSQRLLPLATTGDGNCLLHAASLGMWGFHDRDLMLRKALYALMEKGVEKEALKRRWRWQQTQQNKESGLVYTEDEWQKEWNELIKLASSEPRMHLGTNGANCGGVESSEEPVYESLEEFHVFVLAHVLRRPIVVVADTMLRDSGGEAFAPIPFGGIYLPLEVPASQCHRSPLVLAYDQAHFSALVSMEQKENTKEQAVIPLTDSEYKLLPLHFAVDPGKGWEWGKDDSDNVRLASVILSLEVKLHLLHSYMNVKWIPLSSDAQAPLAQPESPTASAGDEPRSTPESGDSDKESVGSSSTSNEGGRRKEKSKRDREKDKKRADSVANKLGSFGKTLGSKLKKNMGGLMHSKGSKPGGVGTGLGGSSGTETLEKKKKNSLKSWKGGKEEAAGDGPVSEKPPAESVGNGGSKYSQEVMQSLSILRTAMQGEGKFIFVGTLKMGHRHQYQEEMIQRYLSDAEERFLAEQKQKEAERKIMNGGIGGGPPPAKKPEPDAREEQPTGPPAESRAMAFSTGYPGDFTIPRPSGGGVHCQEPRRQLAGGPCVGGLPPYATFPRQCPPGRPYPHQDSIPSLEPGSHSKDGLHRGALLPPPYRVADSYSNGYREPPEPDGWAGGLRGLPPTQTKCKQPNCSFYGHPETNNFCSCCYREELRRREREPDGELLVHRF

As to “2′-Oxo-7′-(4-phenoxyphenyl)-l′,4′-dihydro-2′H-spiro┌pyrrolidine-3,3′-quinoline┐-1-carbonitrile [Example 11]”, the IC50 (commonly the concentration that gives 50% inhibition) was 1000 to 10000 nM.
Regarding “3-(1-Cyano-2′-oxo-1′4′-dihydro-2′H-spiro┌pyrrolidine-3,3′-quinolin┐-7′-yl)-N,N-dimethylbenzamide [Example 30]”, the IC50 lay in the range of 100 to 1000 nM.
With “7′-(1-Methyl-1H-pyrazol-5-yl)-2′-oxo-1′,4′-dihydro-2′H-spiro┌pyrrolidine-3,3′-quinoline┐-1-carbonitrile [Example 10]”, the concentration for half-maximal inhibition (IC50) lay in the range of 1000 to 10000 nM.
The result for “7′-(2-Methylpyridin-4-yl)-2′-oxo-1′,4′-dihydro-2′H-spiro┌pyrrolidine-3,3′-quinoline┐-1-carbonitrile [Example 34]” reads 1000 to 10000 nM; that for “7′-(3-Cyanophenyl)-2′-oxo-l′,4′-dihydro-2′H-spiro┌pyrrolidine-3,3′-quinoline┐-1-carbonitrile [Example 9]”, 1000 to 10000 nM.
